pIC50: −log10 of the molar value. Active and inactive are the calls of the source. The calls are words filed in the database; no cut-off is given here.
Columns and labels:
[1] = test system: HCT-116; experiment: Cytotoxicity against human HCT-116 cells assessed as cell survival measured at 2 uM after 72 hrs by MTS assay relative to control; assay type: functional; details: read-out: Activity
[2] = test system: DLD-1; experiment: Cytotoxicity against human DLD-1 cells assessed as cell survival measured at 2 uM after 72 hrs by MTS assay relative to control; assay type: functional; details: read-out: Activity
[3] = test system: U-87 MG; experiment: Cytotoxicity against human U-87 MG cells assessed as cell survival measured at 2 uM after 72 hrs by MTS assay relative to control; assay type: functional, U-87MG ATCC; details: read-out: Activity
[4] = test system: MDA-MB-231; experiment: Cytotoxicity against human MDA-MB-231 cells assessed as cell survival measured at 2 uM after 72 hrs by MTS assay relative to control; assay type: functional; details: read-out: Activity
[5] = test system: MCF7; experiment: Cytotoxicity against human MCF7 cells assessed as cell survival measured at 2 uM after 72 hrs by MTS assay relative to control; assay type: functional; details: read-out: Activity
[6] = test system: DLD-1; experiment: Cytotoxicity against human DLD1 cells assessed as growth inhibition after 72 hrs by MTS assay; assay type: functional, cell-based; details: DLD-1, 72 h
[7] = test system: MDA-MB-231; experiment: Cytotoxicity against human MDA-MB-231 cells assessed as growth inhibition after 72 hrs by MTS assay; assay type: functional, cell-based; details: MDA-MB-231, 72 h
[8] = test system: SW480; experiment: Cytotoxicity against human SW480 cells assessed as cell survival measured at 2 uM after 72 hrs by MTS assay relative to control; assay type: functional; details: read-out: Activity
[9] = test system: HCT-116; experiment: Reduction in mitotic exit in human HCT-116 cells at 2 uM measured upto 24 hrs by flow cytometry; assay type: functional, cell-based
[10] = test system: DLD-1; experiment: Induction of cell cycle arrest in human DLD-1 cells assessed as reduced progression of S phase (T8) at 2 uM measured upto 24 hrs by flow cytometry; assay type: functional, cell-based
[11] = test system: DLD-1; experiment: Induction of cell cycle arrest in human DLD-1 cells assessed as reduced progression of G2/M phase (T12) at 2 uM measured upto 24 hrs by flow cytometry; assay type: functional, cell-based
[12] = test system: HCT-116; experiment: Effect on cell cycle progression in thymidine synchronized human HCT-116 cells assessed as increase in MPM2 phosphorylation in presence of 0.2 uM of colchicine at 2 uM by Western blot analysis; assay type: functional, cell-based
[13] = test system: HCT-116; experiment: Effect on cell cycle progression in thymidine synchronized human HCT-116 cells assessed as increase in cyclin B1 phosphorylation in presence of 0.2 uM of colchicine at 2 uM by Western blot analysis; assay type: functional, cell-based
[14] = test system: HCT-116; experiment: Effect on cell cycle progression in thymidine synchronized human HCT-116 cells assessed as increase in histone H3 phosphorylation in presence of 0.2 uM of colchicine at 2 uM by Western blot analysis; assay type: functional, cell-based
[15] = test system: HCT-116; experiment: Effect on cell cycle progression in thymidine synchronized human HCT-116 cells assessed as prevention of cells entering from mitosis in presence of colchicine at 2 uM by Western blot analysis; assay type: functional, cell-based
[16] = test system: HCT-116; experiment: Induction of apoptosis in human HCT-116 cells assessed as reduction in number of cells at G1 phase at 1 uM measured after 72 hrs by flow cytometry; assay type: functional, cell-based
[17] = test system: HCT-116; experiment: Induction of apoptosis in human HCT-116 cells assessed as reduction in number of cells at S phase at 1 uM measured after 72 hrs by flow cytometry; assay type: functional, cell-based
[18] = test system: HCT-116; experiment: Induction of apoptosis in human HCT-116 cells assessed as reduction in number of cells at G2/M phase at 1 uM measured after 72 hrs by flow cytometry; assay type: functional, cell-based

Structure (SMILES) | viability at 2 µM [1] [%] | viability at 2 µM [2] [%] | viability at 2 µM [3] [%] | viability at 2 µM [4] [%] | viability at 2 µM [5] [%] | pIC50 [6] | pIC50 [7] | viability at 2 µM [8] [%] | Activity [9] | Activity [10] | Activity [11] | Activity [12] | Activity [13] | Activity [14] | Activity [15] | Activity [16] | Activity [17] | Activity [18]
O=C1C(NCCCCN2CCOCC2)=C(Cl)C(=O)c2ncccc21 | 4.18 | 42.2 | 105 | 81.8 | 92.8 | 5.77 | 6.17 |  |  |  |  |  |  |  |  |  |  | 
O=C1C(Cl)=C(NCCN2CCOCC2)C(=O)c2ccccc21 | 90.1 | 97.6 | 99 | 89.8 | 103 |  |  | 100 |  |  |  |  |  |  |  |  |  | 
O=C1C(Cl)=C(NCCN2CCOCC2)C(=O)c2ncccc21 | 61.8 | 82 | 82 | 94.4 | 79.6 | < 5.70 | < 5.70 | 93.9 | Active | Active | Active | Active | Active | Active | Active | inactive | inactive | inactive
Nc1ccc2c(c1)C(=O)C(Cl)=C(NCCN1CCOCC1)C2=O | 88.7 | 90.8 | 104 | 99.7 | 81.4 |  |  |  |  |  |  |  |  |  |  |  |  | 
O=C1C(NCCCN2CCOCC2)=C(Cl)C(=O)c2ncccc21 | 2.43 | 34.1 | 51.6 | 90.4 | 70.8 | 5.71 | 5.94 | 51.6 |  |  |  |  |  |  |  |  |  | 
O=C1C(Cl)=C(NCCN2CCOCC2)C(=O)c2cc(Cl)ccc21 | 86.5 | 39.3 | 98.2 | 91.3 | 94 |  |  | 105 |  |  |  |  |  |  |  |  |  | 
Nc1cccc2c1C(=O)C(Cl)=C(NCCN1CCOCC1)C2=O | 98 | 91.3 | 95.9 | 98 | 98.9 |  |  | 96 |  |  |  |  |  |  |  |  |  | 
O=C1C(Cl)=C(NCCN2CCOCC2)C(=O)c2cnccc21 | 65.1 | 75.1 | 89.3 | 85.2 | 16.4 |  |  | 100 |  |  |  |  |  |  |  |  |  | 
O=C1C(Cl)=C(NCCCCCN2CCOCC2)C(=O)c2ncccc21 | 59.7 | 78.9 | 79.6 | 85.9 | 84.7 |  |  | 98.1 |  |  |  |  |  |  |  |  |  | 
O=C1C(Cl)=C(NCCN2CCOCC2)C(=O)c2cc(I)ccc21 | 82.4 | 1.7 | 59.3 | 81.1 | 102 |  |  | 84.3 |  |  |  |  |  |  |  |  |  | 
O=C1C(Cl)=C(NCCCN2CCOCC2)C(=O)c2ncccc21 | 56.3 | 67.7 | 76.8 | 87.8 | 95.1 |  |  | 105 |  |  |  |  |  |  |  |  |  | 
